Test results: US7674807B2, “Heterocycle-substituted n-phenyl-phthalamide derivatives, related compounds and their use as insecticides” (Bayer CropScience AG, priority 2004, dated 2010)

Legend:
[1] = tested on: larva of Spodoptera litura; experiment: Test against larva of Spodoptera litura (leaf dip, sweet potato leaves); assay type: in vivo; conditions: 20 ppm concentration of the active component; third instar larvae; counted after 7 days; 25° C.
Description: Preparation of Test Solution:
In order to make an appropriate formulation of an active compound, 1 part by weight of the active compound was mixed with the above-mentioned amount of solvent containing the above-mentioned amount of emulsifier and the mixture was diluted with water to a prescribed concentration.
Leaves of sweet potato were soaked in the test solution diluted to a prescribed concentration with water, dried in the air and put in a dish of 9 cm diameter.
10 larvae of Spodoptera litura at the third instar were placed on the leaves and kept in a room at the constant temperature of 25° C. After 2 and 4 days further leaves of sweet potato were added and after 7 days the number of dead larvae was counted and the rate of death was calculated.
In this test the results of 2 dishes at 1 section were averaged.

[2] = tested on: larva of Cnaphalocrocis medinalis Guenee; experiment: Test against larva of Cnaphalocrocis medinalis Guenee (sprayed paddy rice foliage); assay type: in vivo; conditions: 20 ppm concentration of the active component; second instar larvae; counted after 7 days; 25° C.
Description: Paddy rice (variety: Tamanishiki) planted in a pot was treated by spraying 50 ml per pot of the diluted aqueous solution of the prescribed concentration of the active compound prepared in the same manner as in the above-mentioned Biological Test Example 1. After the treated rice plant was dried in the air, their foliage part was cut in 4-5 cm length, which were put in a dish with 9 cm diameter with a sheet of filter paper and 2 ml of water. Five larvae of Cnaphalocrocis medinalis Guenee at the second instar were put in the dish that was placed in a room at the constant temperature of 25° C. After 2 and 4 days, each rest (each ⅓ amount) of foliage parts of rice plant were cut in the same manner and added to the dish. After 7 days the number of dead larvae was counted and the rate of death was calculated. In this test the results of 2 dishes at 1 section were averaged.

Cc1cc(Cn2nc(C(F)(F)F)nc2C(F)(F)F)ccc1NC(=O)c1cccc(Br)c1C(=O)NC(C)CS(C)(=O)=O (stereo not drawn) [compound 182]
controlling effect, rate of death [1]: 100% | controlling effect, rate of death [2]: 100%

Cc1cc(Oc2nc(C(F)(F)F)cc(C(F)(F)F)n2)ccc1NC(=O)c1cccc(I)c1C(=O)NC(C)(C)CS(C)(=O)=O [compound 310]
controlling effect, rate of death [1]: 100% | controlling effect, rate of death [2]: 100%

CSC[C@H](C)NC(=O)c1c(C(=O)Nc2ccc(Cn3nc(C(F)(F)F)nc3C(F)(F)F)cc2C)cccc1[N+](=O)[O-] [compound 546]
controlling effect, rate of death [1]: 100% | controlling effect, rate of death [2]: 100%

Cc1cc(Cn2nc(C(F)(F)F)nc2C(F)(F)F)ccc1NC(=O)c1cccc(I)c1C(=O)NC(C)CS(C)(=O)=O (stereo not drawn) [compound 219]
controlling effect, rate of death [1]: 100% | controlling effect, rate of death [2]: 100%

Cc1cc(-n2nc(C(F)(F)C(F)(F)F)cc2C(F)(F)F)ccc1NC(=O)c1cccc(I)c1C(=O)NC(C)CS(C)(=O)=O (stereo not drawn) [compound 475]
controlling effect, rate of death [1]: 100% | controlling effect, rate of death [2]: 100%

Cc1cc(Cn2nc(C(F)(F)F)cc2OC(F)F)ccc1NC(=O)c1cccc(I)c1C(=O)NC(C)CS(C)(=O)=O (racemic) [compound 107]
controlling effect, rate of death [1]: 100% | controlling effect, rate of death [2]: 100%

Cc1cc(Cn2cc(C(F)(F)C(F)(F)F)c(C(F)(F)C(F)(F)F)n2)ccc1NC(=O)c1cccc(I)c1C(=O)N[C@@H](C)CS(C)(=O)=O [compound 656]
controlling effect, rate of death [1]: 100% | controlling effect, rate of death [2]: 100%

Cc1cc(Cn2nc(C(F)(F)F)cc2C(F)(F)F)ccc1NC(=O)c1cccc(I)c1C(=O)NC(C)C[S+](C)[O-] (mixture of isomers) [compound 87]
controlling effect, rate of death [1]: 100% | controlling effect, rate of death [2]: 100%

Cc1cc(Cn2cc(C(F)(F)C(F)(F)C(F)(F)F)c(C(F)(F)C(F)(F)C(F)(F)F)n2)ccc1NC(=O)c1cccc(Cl)c1C(=O)N[C@@H](C)C[S+](C)[O-] (stereo partly drawn) [compound 668]
controlling effect, rate of death [1]: 100% | controlling effect, rate of death [2]: 100%

CSCC(C)(C)NC(=O)c1c(I)cccc1C(=O)Nc1ccc(Cn2nc(C(F)(F)F)cc2C(F)(F)F)cc1C [compound 82, N^1-[4-(3,5-bistrifluoromethylpyrazol-1-ylmethyl)-2-methylphenyl]-N^2-(1,1-dimethyl-2-methylsulfanylethyl)-3-iodophthalamide]
controlling effect, rate of death [1]: 100% | controlling effect, rate of death [2]: 100%

Cc1cc(Cn2nc(C(F)(F)F)cc2C(F)(F)F)ccc1NC(=O)c1cccc(Cl)c1C(=O)NC(C)CS(C)(=O)=O (stereo not drawn) [compound 16]
controlling effect, rate of death [1]: 100% | controlling effect, rate of death [2]: 100%

CSCC(C)NC(=O)c1c(I)cccc1C(=O)Nc1ccc(-c2cc(C(F)(F)F)nn2CC(F)(F)F)cc1C (stereo not drawn) [compound 506]
controlling effect, rate of death [1]: 100% | controlling effect, rate of death [2]: 100%

CSCC(C)NC(=O)c1c(I)cccc1C(=O)Nc1ccc(Cn2nc(C(F)(F)C(F)(F)F)nc2C(F)(F)F)cc1C (stereo not drawn) [compound 227]
controlling effect, rate of death [1]: 100% | controlling effect, rate of death [2]: 100%

CSC[C@H](C)NC(=O)c1c(Cl)cccc1C(=O)Nc1ccc(C(C)n2nc(C(F)(F)C(F)(F)F)nc2C(F)(F)F)cc1C (stereo partly drawn) [compound 578]
controlling effect, rate of death [1]: 100% | controlling effect, rate of death [2]: 100%

CSCC(C)NC(=O)c1c(I)cccc1C(=O)Nc1ccc(Cn2nc(C(F)(F)F)cc2C(F)(F)F)cc1C (stereo not drawn) [compound 86]
controlling effect, rate of death [1]: 100% | controlling effect, rate of death [2]: 100%

Cc1cc(Cn2nc(C(F)(F)F)cc2C(F)(F)F)ccc1NC(=O)c1cccc(Cl)c1C(=O)NC(C)CS(C)(=O)=O (racemic) [compound 15]
controlling effect, rate of death [1]: 100% | controlling effect, rate of death [2]: 100%

CSCC(C)(C)NC(=O)c1c(Br)cccc1C(=O)Nc1ccc(Cn2nc(C(F)(F)F)cc2C(F)(F)F)cc1C [compound 45]
controlling effect, rate of death [1]: 100% | controlling effect, rate of death [2]: 100%

Cc1cc(Cn2nc(C(F)(F)F)nc2C(F)(F)F)ccc1NC(=O)c1cccc(I)c1C(=O)NC(C)C[S+](C)[O-] (stereo not drawn) [compound 217]
controlling effect, rate of death [1]: 100% | controlling effect, rate of death [2]: 100%

Cc1cc(Cn2cc(C(F)(F)C(F)(F)F)c(C(F)(F)C(F)(F)F)n2)ccc1NC(=O)c1cccc(I)c1C(=O)N[C@@H](C)C[S+](C)[O-] (stereo partly drawn) [compound 655]
controlling effect, rate of death [1]: 100% | controlling effect, rate of death [2]: 100%

CSCC(C)(C)NC(=O)c1c(Cl)cccc1C(=O)Nc1ccc(Cn2nc(C(F)(F)C(F)(F)F)nc2C(F)(F)F)cc1C [compound 149]
controlling effect, rate of death [1]: 100% | controlling effect, rate of death [2]: 100%

Cc1cc(Cn2nc(C(F)(F)F)cc2C(F)(F)F)ccc1NC(=O)c1cccc(Br)c1C(=O)NC(C)CS(C)(=O)=O (racemic) [compound 52]
controlling effect, rate of death [1]: 100% | controlling effect, rate of death [2]: 100%

CSC[C@H](C)NC(=O)c1c(I)cccc1C(=O)Nc1ccc(Cn2cc(C(F)(F)C(F)(F)F)c(C(F)(F)C(F)(F)C(F)(F)F)n2)cc1C [compound 666]
controlling effect, rate of death [1]: 100% | controlling effect, rate of death [2]: 100%

CSCC(C)NC(=O)c1c(I)cccc1C(=O)Nc1ccc(Cn2nc(C(F)(F)F)cc2OC(F)F)cc1C (racemic) [compound 103]
controlling effect, rate of death [1]: 100% | controlling effect, rate of death [2]: 100%

CSC[C@H](C)NC(=O)c1c(OS(C)(=O)=O)cccc1C(=O)Nc1ccc(-n2nc(C(F)(F)F)cc2C(F)(F)F)cc1C [compound 492]
controlling effect, rate of death [1]: 100% | controlling effect, rate of death [2]: 100%

Cc1cc(Cn2nc(C(F)(F)C(F)(F)F)nc2C(F)(F)F)ccc1NC(=O)c1cccc(I)c1C(=O)NC(C)C[S+](C)[O-] (stereo not drawn) [compound 229]
controlling effect, rate of death [1]: 100% | controlling effect, rate of death [2]: 100%

CSCC(C)NC(=O)c1c(Cl)cccc1C(=O)Nc1ccc(Cn2nc(C(F)(F)C(F)(F)F)nc2C(F)(F)F)cc1C (stereo not drawn) [compound 153]
controlling effect, rate of death [1]: 100% | controlling effect, rate of death [2]: 100%

Cc1cc(C(C)n2nc(C(F)(F)F)cc2C(F)(F)F)ccc1NC(=O)c1cccc(I)c1C(=O)NC(C)(C)C[S+](C)[O-] (stereo not drawn) [compound 566]
controlling effect, rate of death [1]: 100% | controlling effect, rate of death [2]: 100%

CSCC(C)NC(=O)c1c(I)cccc1C(=O)Nc1ccc(Cn2c(C(F)(F)F)nnc2C(F)(F)F)cc1C (stereo not drawn) [compound 299]
controlling effect, rate of death [1]: 100% | controlling effect, rate of death [2]: 100%

Cc1cc(Cn2nc(C(F)(F)F)cc2C(F)(F)F)ccc1NC(=O)c1cccc(Cl)c1C(=O)NC(C)(C)CS(C)(=O)=O [compound 10]
controlling effect, rate of death [1]: 100% | controlling effect, rate of death [2]: 100%

Cc1cc(Cn2cc(C(F)(F)C(F)(F)C(F)(F)C(F)(F)F)c(C(F)(F)F)n2)ccc1NC(=O)c1cccc(Cl)c1C(=O)N[C@@H](C)C[S+](C)[O-] (stereo partly drawn) [compound 646]
controlling effect, rate of death [1]: 100% | controlling effect, rate of death [2]: 100%

Cc1cc(Cn2cc(C(F)(F)C(F)(F)C(F)(F)F)c(C(F)(F)C(F)(F)F)n2)ccc1NC(=O)c1cccc(I)c1C(=O)N[C@@H](C)C[S+](C)[O-] (stereo partly drawn) [compound 661]
controlling effect, rate of death [1]: 100% | controlling effect, rate of death [2]: 100%

CSCC(C)NC(=O)c1c(I)cccc1C(=O)Nc1ccc(Cn2nc(C(F)(F)F)cc2C(F)(F)F)cc1C (racemic) [compound 85]
controlling effect, rate of death [1]: 100% | controlling effect, rate of death [2]: 100%

Cc1cc(Cn2nc(C(F)(F)F)nc2C(F)(F)F)ccc1NC(=O)c1cccc(I)c1C(=O)NC(C)(C)C[S+](C)[O-] (stereo not drawn) [compound 212]
controlling effect, rate of death [1]: 100% | controlling effect, rate of death [2]: 100%

Cc1cc(Cn2nc(C(F)(F)F)cc2C(F)(F)F)ccc1NC(=O)c1cccc(I)c1C(=O)NC(C)(C)C[S+](C)[O-] (stereo not drawn) [compound 83, N^1-{4-[3,5-bis(trifluoromethyl)-1H-pyrazol-1-ylmethyl]-2-methylphenyl}-N^2-(2-methanesulfinyl-1,1-dimethylethyl)-3-iodophthalamide]
controlling effect, rate of death [1]: 100% | controlling effect, rate of death [2]: 100%

CSC[C@H](C)NC(=O)c1c(Cl)cccc1C(=O)Nc1ccc(Cn2cc(C(F)(F)C(F)(F)C(F)(F)F)c(C(F)(F)F)n2)cc1C [compound 643]
controlling effect, rate of death [1]: 100% | controlling effect, rate of death [2]: 100%

CSCC(C)NC(=O)c1c(I)cccc1C(=O)Nc1ccc(-n2nc(C(F)(F)F)cc2C(F)(F)F)cc1C (stereo not drawn) [compound 413]
controlling effect, rate of death [1]: 100% | controlling effect, rate of death [2]: 100%

Cc1cc(Cn2nc(C(F)(F)F)cc2C(F)(F)F)ccc1NC(=O)c1cccc(Cl)c1C(=O)NC(C)(C)C[S+](C)[O-] (racemic) [compound 9]
controlling effect, rate of death [1]: 100% | controlling effect, rate of death [2]: 100%

Cc1cc(C(C)n2nc(C(F)(F)F)cc2C(F)(F)F)ccc1NC(=O)c1cccc(Cl)c1C(=O)N[C@@H](C)CS(C)(=O)=O (stereo partly drawn) [compound 561]
controlling effect, rate of death [1]: 100% | controlling effect, rate of death [2]: 100%

Cc1cc(Cn2nc(C(F)(F)F)cc2C(F)(F)F)ccc1NC(=O)c1cccc(OS(C)(=O)=O)c1C(=O)NC(C)CS(C)(=O)=O (stereo not drawn) [compound 132]
controlling effect, rate of death [1]: 100% | controlling effect, rate of death [2]: 100%
